Values quoted from earlier work, collected in patent US20240180842A1, “COLON TARGETED DRUG DELIVERY” (Axial Therapeutics, Inc., priority 2022, published 2024).

System: ASD individuals with high irritability (ABC-I≥18)
Details: phase 3 study, drug arms; placebo arm 34.7%

O=C1CCc2ccc(OCCCCN3CCN(c4cccc(Cl)c4Cl)CC3)cc2N1 [aripiprazole]
response rate (25% improvement in ABC-I scores and CGI-I≤2): 49-56%
